Legend:
Assay in all cases: Postemergence herbicidal activity under field conditions, visual weed control
Assay type in all cases: in vivo
Conditions in all cases: post-emergence field trial
[1] = test system: Digitaria horizontalis (Jamaican crabgrass, DIGHO)
Experimental: (§1) These trials were conducted under field conditions in Espinal, Colombia. Trial sites were located in commercially grown fields of common rice (Oryza sativa). The rice crop was grown using normal cultural practices for fertilization, seeding, and maintenance to ensure good growth of the crop and the weeds. The trials were conducted using normal research methodology. Trial plots were 2 meters (m) wide by 5 m long. All treatments were applied using a randomized complete block trial design with 4 replications per treatment. The trial sites had naturally occurring populations of weeds. The weed spectrum included, but was not limited to, Cyperus iria L. (rice flatsedge, CYPIR), Digitaria horizontalis (Jamaican crabgrass, DIGHO), Eleusine indica L. Gaertn. (goosegrass, ELEIN), Portulaca oleracea L. (common purslane, POROL) and Phyllanthus niruri L. (gripeweed, PYLNI). The plots were treated with a postemergence foliar application 15 to 20 days after emergence of the rice.
(§2) Treatments consisted of tank mixes of aminopyralid triisopropanolammonium salt (MILESTONE 240SL) and a commercially available formulation of propanil herbicide (STAM 480EC). The application volume was 200 liters per hectare (L/ha) of water. All applications were made using precision gas hand sprayers with a 3 m boom using flat fan 8002 nozzles to broadcast the treatments over the top of the rice and weeds.
(§3) The treated plots and control plots were rated blind at various intervals after application. Ratings were based on Percent (%) Visual weed control, where 0 corresponds to no injury and 100 corresponds to complete kill.
(§4) Colby's equation was used to determine the herbicidal effects expected from the mixtures (Colby, S. R. Calculation of the synergistic and antagonistic response of herbicide combinations. Weeds 1967 15, 20-22).
(§5) The following equation was used to calculate the expected activity of mixtures containing two active ingredients, A and B: Expected=A+B−(A×B/100)
(§6) A=observed efficacy of active ingredient A at the same concentration as used in the mixture;
(§7) B=observed efficacy of active ingredient B at the same concentration as used in the mixture.

[2] = test system: Phyllanthus niruri L. (gripeweed, PYLNI)
Experimental: as §1, §2, §3, §4, §5, §6, §7

[3] = test system: Eleusine indica L. Gaertn. (goosegrass, ELEIN)
Experimental: as §1, §2, §3, §4, §5, §6, §7

[4] = test system: Portulaca oleracea L. (common purslane, POROL)
Experimental: as §1, §2, §3, §4, §5, §6, §7

[5] = test system: Cyperus iria L. (rice flatsedge, CYPIR)
Experimental: as §1, §2, §3, §4, §5, §6, §7

Question: How did the “Visual Weed Control (%) DIGHO 8 DAA Obs” value ([1]; aminopyralid 8 g ae/ha alone) turn out when `Nc1cc(Cl)nc(C(=O)O)c1Cl` [Aminopyralid, 4-amino-3,6-dichloro-2-pyridinecarboxylic acid] was run?
Answer: 0%

Question: What about the “Visual Weed Control (%) DIGHO 8 DAA Obs” value ([1]; aminopyralid 16 g ae/ha alone) of the same compound?
Answer: 0%

Question: And the “Visual Weed Control (%) PYLNI 8 DAA Obs” value ([2]; aminopyralid 4 g ae/ha alone)?
Answer: 0%

Question: What about the “Visual Weed Control (%) PYLNI 8 DAA Obs” value ([2]; aminopyralid 8 g ae/ha alone) of the same compound?
Answer: 3%

Question: What about the “Visual Weed Control (%) PYLNI 8 DAA Obs” value ([2]; aminopyralid 16 g ae/ha alone) of the same compound?
Answer: 3%

Question: What about the “Visual Weed Control (%) ELEIN 8 DAA Obs” value ([3]; aminopyralid 4 g ae/ha alone) of the same compound?
Answer: 0%

Question: What about the “Visual Weed Control (%) ELEIN 8 DAA Obs” value ([3]; aminopyralid 8 g ae/ha alone) of the same compound?
Answer: 0%

Question: What about the “Visual Weed Control (%) ELEIN 8 DAA Obs” value ([3]; aminopyralid 16 g ae/ha alone) of the same compound?
Answer: 0%

Question: What about the “Visual Weed Control (%) POROL 8 DAA Obs” value ([4]; aminopyralid 4 g ae/ha alone) of the same compound?
Answer: 36%

Question: What about the “Visual Weed Control (%) POROL 8 DAA Obs” value ([4]; aminopyralid 8 g ae/ha alone) of the same compound?
Answer: 68%

Question: What about the “Visual Weed Control (%) POROL 8 DAA Obs” value ([4]; aminopyralid 16 g ae/ha alone) of the same compound?
Answer: 93%

Question: What about the “Visual Weed Control (%) CYPIR 15 DAA Obs” value ([5]; aminopyralid 4 g ae/ha alone) of the same compound?
Answer: 4.5%

Question: And the “Visual Weed Control (%) CYPIR 32 DAA Obs” value ([5]; aminopyralid 4 g ae/ha alone)?
Answer: 0%

Question: And the “Visual Weed Control (%) CYPIR 32 DAA Obs” value ([5]; aminopyralid 8 g ae/ha alone)?
Answer: 10%

Question: And the “Visual Weed Control (%) CYPIR 15 DAA Obs” value ([5]; aminopyralid 16 g ae/ha alone)?
Answer: 15%

Question: And the “Visual Weed Control (%) CYPIR 32 DAA Obs” value ([5]; aminopyralid 16 g ae/ha alone)?
Answer: 10%

Question: Which results are given for `CCC(=O)Nc1ccc(Cl)c(Cl)c1` [Propanil, N-(3,4-dichloro-phenyl)propanamide]?
Answer: Visual Weed Control (%) DIGHO 8 DAA Obs ([1]; propanil 480 g ai/ha alone): 51%; Visual Weed Control (%) PYLNI 8 DAA Obs ([2]; propanil 480 g ai/ha alone): 45%; Visual Weed Control (%) ELEIN 8 DAA Obs ([3]; propanil 480 g ai/ha alone): 48%; Visual Weed Control (%) POROL 8 DAA Obs ([4]; propanil 480 g ai/ha alone): 49%; Visual Weed Control (%) CYPIR 15 DAA Obs ([5]; propanil 480 g ai/ha alone): 35%; Visual Weed Control (%) CYPIR 32 DAA Obs ([5]; propanil 480 g ai/ha alone): 20%; Visual Weed Control (%) CYPIR 32 DAA Obs ([5]; propanil 960 g ai/ha alone): 58%
